# According to patent publication US11439148B2, “Pyrimidine derivatives” (SYNGENTA PARTICIPATIONS AG, priority 2017, dated 2022):
# Tested on: Setaria viridis (SETVI)
# Test: Adjuvant efficacy with fomesafen, glasshouse spray test
# Format: in vivo
# Conditions: fomesafen sodium salt SL, mean over 100 and 200 g/ha and 3 replicates; adjuvant 0.2% v/v (none in No Adjuvant rows); % leaf area killed, 21 days after application; Tests 1-4 separate runs
# Method: (§1) The efficacy of adjuvants 1-12 as adjuvants for the herbicide fomesafen (as the sodium salt) were tested in a glasshouse against four weed species, sown into standard soil in pots and cultivated under controlled conditions in a glasshouse (at 24/18° C. day/night; 16 hours light, 65% humidity). Fomesafen sodium salt was added to the spray tank as a standard SL (soluble concentrate) formulation.
# (§2) The spray tests were also carried out using fomesafen in conjunction with adjuvants 1-12. Unless otherwise stated, the adjuvants were added to the spray solution at a rate of 0.2% v/v. All spray solutions also contained 12.5% v/v of iso-Propanol to normalise the retention of the sprays on the hydrophobic plant surfaces. The weed species and their BBCH growth stage at spraying were Abutilon theophrasti (ABUTH; growth stage 12-13), Chenopodium album (CHEAL; growth stage 15), Ipomea hederacea (IPOHE; growth stage 12), and Setaria viridis (SETVI; growth stage 14). Each spray test was replicated three times. The test plants were then grown in a glasshouse under controlled conditions (at 24/18° C. day/night; 16 hours light; 65% humidity) and watered twice a day.
# (§3) The efficacy of the herbicide was assessed visually and expressed as a percentage of the leaf area killed. Samples were assessed at a time period of 21 days following application. The results shown in Table 2 below are mean averages over the two rates of fomesafen, the three replicates […].
row,SMILES,Mean % Herbicidal Activity SETVI
1,CCCCCCOc1cc(OCCOCCOCCOCCOCCOCCOCCOCCOCCOCCOCCOCCOCCOCCOCCOCCOCCOCCOCCOCCOC)ncn1 [Adjuvant 3],37%
2,CCCCCCCCCOc1cc(OCCOCCOCCOCCOCCOCCOCCOC)ncn1 [Adjuvant 4],53%

# Tested on: Ipomea hederacea (IPOHE)
# Test: as above
# Format: in vivo
# Conditions: fomesafen sodium salt SL, mean over 100 and 200 g/ha and 3 replicates; adjuvant 0.2% v/v (none in No Adjuvant rows); % leaf area killed, 21 days after application; Tests 1-4 separate runs
# Method: as §1, §2, §3
row,SMILES,Mean % Herbicidal Activity IPOHE
1,CCCCCCOc1cc(OCCOCCOCCOCCOCCOCCOCCOCCOCCOCCOCCOCCOCCOCCOCCOCCOCCOCCOCCOCCOC)ncn1 [Adjuvant 3],88%
2,CCCCCCCCCOc1cc(OCCOCCOCCOCCOCCOCCOCCOC)ncn1 [Adjuvant 4],93%

# Tested on: Abutilon theophrasti (ABUTH)
# Test: as above
# Format: in vivo
# Conditions: fomesafen sodium salt SL, mean over 100 and 200 g/ha and 3 replicates; adjuvant 0.2% v/v (none in No Adjuvant rows); % leaf area killed, 21 days after application; Tests 1-4 separate runs
# Method: as §1, §2, §3
row,SMILES,Mean % Herbicidal Activity ABUTH
1,CCCCCCOc1cc(OCCOCCOCCOCCOCCOCCOCCOCCOCCOCCOCCOCCOCCOCCOCCOCCOCCOCCOCCOCCOC)ncn1 [Adjuvant 3],47%
2,CCCCCCCCCOc1cc(OCCOCCOCCOCCOCCOCCOCCOC)ncn1 [Adjuvant 4],51%

# Tested on: Chenopodium album (CHEAL)
# Test: as above
# Format: in vivo
# Conditions: fomesafen sodium salt SL, mean over 100 and 200 g/ha and 3 replicates; adjuvant 0.2% v/v (none in No Adjuvant rows); % leaf area killed, 21 days after application; Tests 1-4 separate runs
# Method: as §1, §2, §3
row,SMILES,Mean % Herbicidal Activity CHEAL
1,CCCCCCOc1cc(OCCOCCOCCOCCOCCOCCOCCOCCOCCOCCOCCOCCOCCOCCOCCOCCOCCOCCOCCOCCOC)ncn1 [Adjuvant 3],54%
2,CCCCCCCCCOc1cc(OCCOCCOCCOCCOCCOCCOCCOC)ncn1 [Adjuvant 4],45%

# Tested on: Alopecurus myosuroides (ALOMY)
# Test: Adjuvant efficacy with pinoxaden, glasshouse spray test
# Format: in vivo
# Conditions: pinoxaden EC, mean over 7.5 and 15 g/ha and 3 replicates; adjuvant 0.2% v/v (none in No Adjuvant rows); % leaf area killed, 21 days after application; Tests 1-4 separate runs
# Method: as §1, with “pinoxaden” for “fomesafen (as the sodium salt)”, “20/16°” for “24/18°”, “light;” for “light,”, “Pinoxaden” for “Fomesafen sodium salt”, “EC (emulsifiable” for “SL (soluble”
# (§4) The spray tests were also carried out using pinoxaden in conjunction with adjuvants 1-12. The adjuvants were added to the spray solution at a rate of 0.2% v/v unless otherwise stated. All spray solutions also contained 10% w/w of iso-Propanol. The weed species and their BBCH growth stage at spraying were Avena fatua (AVEFA; growth stage 12), Lolium perenne (LOLPE; growth stage 13), Alopecurus myosuroides (ALOMY; growth stage 13), and Setaria viridis (SETVI; growth stage 13-14). Each spray test was replicated three times. The test plants were then grown in a glasshouse under controlled conditions (at 20/16° C. day/night; 16 hours light; 65% humidity) and watered twice a day. The efficacy of the herbicide was assessed visually and expressed as a percentage of the leaf area killed. Samples were assessed at a time period of 21 days following application. The results shown in Table 4 below are mean averages over the two rates of pinoxaden, and the three replicates.
row,SMILES,Mean % Herbicidal Activity ALOMY
1,CCCCCCOc1cc(OCCOCCOCCOCCOCCOCCOCCOCCOCCOCCOCCOCCOCCOCCOCCOCCOCCOCCOCCOCCOC)ncn1 [Adjuvant 3],15%
2,CCCCCCCCCOc1cc(OCCOCCOCCOCCOCCOCCOCCOC)ncn1 [Adjuvant 4],18%

# Tested on: Avena fatua (AVEFA)
# Test: as above
# Format: in vivo
# Conditions: pinoxaden EC, mean over 7.5 and 15 g/ha and 3 replicates; adjuvant 0.2% v/v (none in No Adjuvant rows); % leaf area killed, 21 days after application; Tests 1-4 separate runs
# Method: as §1, with “pinoxaden” for “fomesafen (as the sodium salt)”, “20/16°” for “24/18°”, “light;” for “light,”, “Pinoxaden” for “Fomesafen sodium salt”, “EC (emulsifiable” for “SL (soluble”
# as §4
row,SMILES,Mean % Herbicidal Activity AVEFA
1,CCCCCCOc1cc(OCCOCCOCCOCCOCCOCCOCCOCCOCCOCCOCCOCCOCCOCCOCCOCCOCCOCCOCCOCCOC)ncn1 [Adjuvant 3],52%
2,CCCCCCCCCOc1cc(OCCOCCOCCOCCOCCOCCOCCOC)ncn1 [Adjuvant 4],78%

# Tested on: Setaria viridis (SETVI)
# Test: as above
# Format: in vivo
# Conditions: pinoxaden EC, mean over 7.5 and 15 g/ha and 3 replicates; adjuvant 0.2% v/v (none in No Adjuvant rows); % leaf area killed, 21 days after application; Tests 1-4 separate runs
# Method: as §1, with “pinoxaden” for “fomesafen (as the sodium salt)”, “20/16°” for “24/18°”, “light;” for “light,”, “Pinoxaden” for “Fomesafen sodium salt”, “EC (emulsifiable” for “SL (soluble”
# as §4
row,SMILES,Mean % Herbicidal Activity SETVI
1,CCCCCCOc1cc(OCCOCCOCCOCCOCCOCCOCCOCCOCCOCCOCCOCCOCCOCCOCCOCCOCCOCCOCCOCCOC)ncn1 [Adjuvant 3],88%
2,CCCCCCCCCOc1cc(OCCOCCOCCOCCOCCOCCOCCOC)ncn1 [Adjuvant 4],82%

# Tested on: Lolium perenne (LOLPE)
# Test: as above
# Format: in vivo
# Conditions: pinoxaden EC, mean over 7.5 and 15 g/ha and 3 replicates; adjuvant 0.2% v/v (none in No Adjuvant rows); % leaf area killed, 21 days after application; Tests 1-4 separate runs
# Method: as §1, with “pinoxaden” for “fomesafen (as the sodium salt)”, “20/16°” for “24/18°”, “light;” for “light,”, “Pinoxaden” for “Fomesafen sodium salt”, “EC (emulsifiable” for “SL (soluble”
# as §4
row,SMILES,Mean % Herbicidal Activity LOLPE
1,CCCCCCOc1cc(OCCOCCOCCOCCOCCOCCOCCOCCOCCOCCOCCOCCOCCOCCOCCOCCOCCOCCOCCOCCOC)ncn1 [Adjuvant 3],22%
2,CCCCCCCCCOc1cc(OCCOCCOCCOCCOCCOCCOCCOC)ncn1 [Adjuvant 4],30%

# Tested on: Setaria viridis (SETVI)
# Test: Adjuvant efficacy with nicosulfuron, glasshouse spray test
# Format: in vivo
# Conditions: nicosulfuron WG, mean over 15 and 60 g/ha and 3 replicates; adjuvant 0.2% v/v (none in No Adjuvant rows); % leaf area killed, 21 days after application; Tests 1-4 separate runs
# Method: (§5) The efficacy of adjuvants 1-12 as adjuvants for the herbicide nicosulfuron were tested in a glasshouse against four weed species sown into standard soil in pots and cultivated under controlled conditions in a glasshouse (at 24/18° C. day/night; 16 hours light; 65% humidity). Nicosulfuron was added to the spray tank as a standard WG (water dispersible granule) formulation.
# (§6) The spray tests were also carried out using nicosulfuron in conjunction with adjuvants 1-12. The adjuvant was added to the spray solution at a rate of 0.2% v/v. All spray solutions also contained 12.5% v/v of iso-Propanol. The weed species and their BBCH growth stage at spraying were Abutilon theophrasti (ABUTH; growth stage 13), Chenopodium album (CHEAL; growth stage 13-14), Digitaria sanguinalis (DIGSA; growth stage 11), and Setaria viridis (SETVI; growth stage 13). Each spray test was replicated three times. The test plants were then grown in a glasshouse under controlled conditions (at 24/18° C. day/night; 16 hours light; 65% humidity) and watered twice a day. The efficacy of the herbicide was assessed visually and expressed as a percentage of the leaf area killed. Samples were assessed at a time period of 21 days following application. The results shown in Table 1 below are mean averages over the two rates of nicosulfuron, and the three replicates.
row,SMILES,Mean % Herbicidal Activity SETVI
1,CCCCCCOc1cc(OCCOCCOCCOCCOCCOCCOCCOCCOCCOCCOCCOCCOCCOCCOCCOCCOCCOCCOCCOCCOC)ncn1 [Adjuvant 3],93%
2,CCCCCCCCCOc1cc(OCCOCCOCCOCCOCCOCCOCCOC)ncn1 [Adjuvant 4],94%

# Tested on: Digitaria sanguinalis (DIGSA)
# Test: as above
# Format: in vivo
# Conditions: nicosulfuron WG, mean over 15 and 60 g/ha and 3 replicates; adjuvant 0.2% v/v (none in No Adjuvant rows); % leaf area killed, 21 days after application; Tests 1-4 separate runs
# Method: as §5, §6
row,SMILES,Mean % Herbicidal Activity DIGSA
1,CCCCCCOc1cc(OCCOCCOCCOCCOCCOCCOCCOCCOCCOCCOCCOCCOCCOCCOCCOCCOCCOCCOCCOCCOC)ncn1 [Adjuvant 3],88%
2,CCCCCCCCCOc1cc(OCCOCCOCCOCCOCCOCCOCCOC)ncn1 [Adjuvant 4],70%

# Tested on: Abutilon theophrasti (ABUTH)
# Test: as above
# Format: in vivo
# Conditions: nicosulfuron WG, mean over 15 and 60 g/ha and 3 replicates; adjuvant 0.2% v/v (none in No Adjuvant rows); % leaf area killed, 21 days after application; Tests 1-4 separate runs
# Method: as §5, §6
row,SMILES,Mean % Herbicidal Activity ABUTH
1,CCCCCCOc1cc(OCCOCCOCCOCCOCCOCCOCCOCCOCCOCCOCCOCCOCCOCCOCCOCCOCCOCCOCCOCCOC)ncn1 [Adjuvant 3],49%
2,CCCCCCCCCOc1cc(OCCOCCOCCOCCOCCOCCOCCOC)ncn1 [Adjuvant 4],48%

# Tested on: Chenopodium album (CHEAL)
# Test: as above
# Format: in vivo
# Conditions: nicosulfuron WG, mean over 15 and 60 g/ha and 3 replicates; adjuvant 0.2% v/v (none in No Adjuvant rows); % leaf area killed, 21 days after application; Tests 1-4 separate runs
# Method: as §5, §6
row,SMILES,Mean % Herbicidal Activity CHEAL
1,CCCCCCOc1cc(OCCOCCOCCOCCOCCOCCOCCOCCOCCOCCOCCOCCOCCOCCOCCOCCOCCOCCOCCOCCOC)ncn1 [Adjuvant 3],76%
2,CCCCCCCCCOc1cc(OCCOCCOCCOCCOCCOCCOCCOC)ncn1 [Adjuvant 4],78%

# Tested on: four weed species (ABUTH, CHEAL, IPOHE, SETVI)
# Test: Adjuvant efficacy with fomesafen, glasshouse spray test, average over all species
# Format: in vivo
# Conditions: fomesafen sodium salt SL, mean over 100 and 200 g/ha, adjuvant 0.2% v/v (none in No Adjuvant rows), 21 days, average of ABUTH
# Method: as §1, §2, §3
row,SMILES,Mean % Herbicidal Activity Average over all Species
1,CCCCCCOc1cc(OCCOCCOCCOCCOCCOCCOCCOCCOCCOCCOCCOCCOCCOCCOCCOCCOCCOCCOCCOCCOC)ncn1 [Adjuvant 3],56%
2,CCCCCCCCCOc1cc(OCCOCCOCCOCCOCCOCCOCCOC)ncn1 [Adjuvant 4],61%

# Tested on: four weed species (ABUTH, CHEAL, DIGSA, SETVI)
# Test: Adjuvant efficacy with nicosulfuron, glasshouse spray test, average over all species
# Format: in vivo
# Conditions: nicosulfuron WG, mean over 15 and 60 g/ha, adjuvant 0.2% v/v (none in No Adjuvant rows), 21 days, average of ABUTH
# Method: as §5, §6
row,SMILES,Mean % Herbicidal Activity Average over all Species
1,CCCCCCOc1cc(OCCOCCOCCOCCOCCOCCOCCOCCOCCOCCOCCOCCOCCOCCOCCOCCOCCOCCOCCOCCOC)ncn1 [Adjuvant 3],76%
2,CCCCCCCCCOc1cc(OCCOCCOCCOCCOCCOCCOCCOC)ncn1 [Adjuvant 4],73%
